The results in this text go back to ChEMBL document CHEMBL3608249, “Indolylpiperidine derivatives as potent and selective α1B adrenoceptor antagonists” (Bioorg Med Chem Lett, 2015).

The target in experiment [1] is T1, Alpha-1A adrenergic receptor (Rattus norvegicus, UniProt P43140).
T1 sequence (P43140 whole entry): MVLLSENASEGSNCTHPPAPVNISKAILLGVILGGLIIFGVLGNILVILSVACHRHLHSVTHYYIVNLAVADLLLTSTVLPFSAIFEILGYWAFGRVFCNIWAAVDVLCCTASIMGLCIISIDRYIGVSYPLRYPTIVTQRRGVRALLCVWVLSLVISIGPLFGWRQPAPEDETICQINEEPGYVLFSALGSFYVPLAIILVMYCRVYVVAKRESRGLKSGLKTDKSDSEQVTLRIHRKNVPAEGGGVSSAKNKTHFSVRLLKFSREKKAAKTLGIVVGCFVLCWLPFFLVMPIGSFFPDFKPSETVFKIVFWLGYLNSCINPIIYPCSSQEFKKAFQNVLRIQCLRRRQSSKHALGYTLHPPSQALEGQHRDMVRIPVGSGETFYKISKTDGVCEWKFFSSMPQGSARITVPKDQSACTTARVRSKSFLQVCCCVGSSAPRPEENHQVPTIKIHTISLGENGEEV
In words: Displacement of [3H]prazosin from alpha1A adrenoceptor in rat submaxillary gland membrane. The class given is cell membranes.

The target in experiment [2] is T2, Alpha-1B adrenergic receptor (Rattus norvegicus, UniProt P15823).
T2 sequence (P15823 whole entry): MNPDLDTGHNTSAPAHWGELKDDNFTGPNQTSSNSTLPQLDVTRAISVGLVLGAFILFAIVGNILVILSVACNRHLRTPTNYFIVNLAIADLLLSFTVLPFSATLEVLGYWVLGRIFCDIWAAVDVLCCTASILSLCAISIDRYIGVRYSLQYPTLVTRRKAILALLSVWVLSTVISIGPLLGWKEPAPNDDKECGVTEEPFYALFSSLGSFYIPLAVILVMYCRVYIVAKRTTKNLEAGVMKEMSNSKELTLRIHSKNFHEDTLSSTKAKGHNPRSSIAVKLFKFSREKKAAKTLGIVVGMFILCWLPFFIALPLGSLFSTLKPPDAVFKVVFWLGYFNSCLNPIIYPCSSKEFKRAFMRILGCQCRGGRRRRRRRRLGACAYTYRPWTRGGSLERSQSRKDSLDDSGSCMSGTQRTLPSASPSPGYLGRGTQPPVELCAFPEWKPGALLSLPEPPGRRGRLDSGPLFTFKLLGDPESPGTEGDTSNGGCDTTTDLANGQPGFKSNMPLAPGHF
Nature of the experiment: Displacement of [3H]prazosin from alpha1B adrenoceptor in rat liver membranes. The class given is cell membranes, Membrane.

The target of experiment [3] is T3, Alpha-1D adrenergic receptor (Homo sapiens, UniProt P25100).
T3 sequence (P25100 whole entry): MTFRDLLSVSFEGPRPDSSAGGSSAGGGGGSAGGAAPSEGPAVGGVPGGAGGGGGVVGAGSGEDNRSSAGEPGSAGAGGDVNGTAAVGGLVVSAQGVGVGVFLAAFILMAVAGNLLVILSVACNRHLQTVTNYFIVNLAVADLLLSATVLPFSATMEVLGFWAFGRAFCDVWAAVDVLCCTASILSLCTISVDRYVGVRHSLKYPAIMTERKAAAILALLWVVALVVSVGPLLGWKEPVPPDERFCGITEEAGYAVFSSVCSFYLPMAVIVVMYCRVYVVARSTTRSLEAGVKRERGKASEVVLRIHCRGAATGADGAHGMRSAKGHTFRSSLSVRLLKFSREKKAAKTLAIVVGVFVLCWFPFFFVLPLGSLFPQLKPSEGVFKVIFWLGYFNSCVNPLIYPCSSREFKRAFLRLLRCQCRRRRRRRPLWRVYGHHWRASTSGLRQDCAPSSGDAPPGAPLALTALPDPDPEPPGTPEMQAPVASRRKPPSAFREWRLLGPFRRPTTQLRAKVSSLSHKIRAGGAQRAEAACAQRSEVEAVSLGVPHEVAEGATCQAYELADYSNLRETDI
In words: Binding affinity to human recombinant alpha1D adrenoceptor.

A further experiment concerns the target Adrenergic receptor beta (Rattus norvegicus, UniProt P18090+P10608+P26255). Nature of the experiment: Binding affinity to beta adrenoceptor in rat brain. The class given is tissue-based.
The species named for experiment [4] is Rattus norvegicus. In words: Selectivity ratio of Ki for alpha2 adrenoceptor in rat cerebral cortex to Ki for alpha1B adrenoceptor in rat liver membranes. The class given is cell membranes.
For experiment [5], the target named is T4, Alpha-1B adrenergic receptor (Homo sapiens, UniProt P35368).
T4 sequence (P35368 whole entry): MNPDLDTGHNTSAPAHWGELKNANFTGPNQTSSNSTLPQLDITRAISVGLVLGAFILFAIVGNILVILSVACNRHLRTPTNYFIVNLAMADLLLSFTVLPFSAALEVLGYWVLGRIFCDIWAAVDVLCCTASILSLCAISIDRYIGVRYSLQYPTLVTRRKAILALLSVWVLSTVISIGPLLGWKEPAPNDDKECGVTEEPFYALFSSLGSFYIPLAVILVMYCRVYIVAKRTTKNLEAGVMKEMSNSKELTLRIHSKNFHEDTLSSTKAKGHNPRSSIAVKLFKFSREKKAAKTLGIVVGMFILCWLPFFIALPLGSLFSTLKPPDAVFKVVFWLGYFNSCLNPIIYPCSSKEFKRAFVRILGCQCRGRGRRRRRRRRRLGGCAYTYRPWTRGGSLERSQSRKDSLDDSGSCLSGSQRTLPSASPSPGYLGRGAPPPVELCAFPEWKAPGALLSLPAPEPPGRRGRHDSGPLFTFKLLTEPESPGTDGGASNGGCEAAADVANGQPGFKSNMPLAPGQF
Nature of the experiment: Antagonist activity at human alpha1B adrenoceptor assessed as inhibition of norepinephrine-induced increase of intracellular calcium level by cell based assay. Format: functional.

The species named for experiment [6] is Rattus norvegicus. In words: Selectivity ratio of Ki for beta adrenoceptor in rat brain to Ki for alpha1B adrenoceptor in rat liver membranes. The class given is cell membranes.
Experiment [7] can be described thus: Selectivity ratio of Ki for human recombinant alpha1D adrenoceptor to Ki for alpha1B adrenoceptor in rat liver membranes. The class given is cell membranes.
Experiment [8] concerns the target T5, Adrenergic receptor alpha-2 (Rattus norvegicus, UniProt P22086+P19328+P22909).
T5 sequence (P22086 whole entry): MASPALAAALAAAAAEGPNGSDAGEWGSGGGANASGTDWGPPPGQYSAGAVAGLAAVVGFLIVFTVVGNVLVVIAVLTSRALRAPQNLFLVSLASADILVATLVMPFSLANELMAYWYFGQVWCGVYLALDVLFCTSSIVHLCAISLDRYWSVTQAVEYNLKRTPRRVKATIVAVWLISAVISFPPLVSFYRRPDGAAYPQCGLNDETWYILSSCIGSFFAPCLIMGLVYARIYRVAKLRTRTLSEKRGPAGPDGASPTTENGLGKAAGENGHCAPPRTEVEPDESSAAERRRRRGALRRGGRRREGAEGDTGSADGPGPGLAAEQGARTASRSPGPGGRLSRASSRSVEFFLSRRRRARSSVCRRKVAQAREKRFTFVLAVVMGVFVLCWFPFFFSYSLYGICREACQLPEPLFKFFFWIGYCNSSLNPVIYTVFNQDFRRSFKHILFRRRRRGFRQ
T5 sequence (P19328 whole entry): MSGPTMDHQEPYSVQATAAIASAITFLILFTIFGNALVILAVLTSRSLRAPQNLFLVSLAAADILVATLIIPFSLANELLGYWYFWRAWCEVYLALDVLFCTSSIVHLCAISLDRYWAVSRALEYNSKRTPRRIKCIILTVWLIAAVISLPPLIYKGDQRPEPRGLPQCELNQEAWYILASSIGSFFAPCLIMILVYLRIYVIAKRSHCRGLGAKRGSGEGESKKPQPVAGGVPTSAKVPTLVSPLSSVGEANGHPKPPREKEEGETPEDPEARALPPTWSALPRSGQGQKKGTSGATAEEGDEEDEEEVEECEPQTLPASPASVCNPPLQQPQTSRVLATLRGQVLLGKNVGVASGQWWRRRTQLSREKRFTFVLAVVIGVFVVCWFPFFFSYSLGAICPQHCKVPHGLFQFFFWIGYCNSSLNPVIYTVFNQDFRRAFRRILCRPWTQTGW
T5 sequence (P22909 whole entry): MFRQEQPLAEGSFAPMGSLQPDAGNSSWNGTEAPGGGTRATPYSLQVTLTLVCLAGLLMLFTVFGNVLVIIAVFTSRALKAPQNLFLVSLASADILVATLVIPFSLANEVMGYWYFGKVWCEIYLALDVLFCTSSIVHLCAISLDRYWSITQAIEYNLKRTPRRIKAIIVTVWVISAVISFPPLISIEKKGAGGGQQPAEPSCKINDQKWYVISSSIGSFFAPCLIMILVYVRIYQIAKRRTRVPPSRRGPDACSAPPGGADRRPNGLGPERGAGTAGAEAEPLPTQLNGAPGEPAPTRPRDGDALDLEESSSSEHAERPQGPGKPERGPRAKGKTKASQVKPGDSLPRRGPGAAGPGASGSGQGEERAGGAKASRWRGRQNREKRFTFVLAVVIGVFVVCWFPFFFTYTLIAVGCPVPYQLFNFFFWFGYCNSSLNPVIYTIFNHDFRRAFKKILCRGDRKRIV
Nature of the experiment: Binding affinity to alpha2 adrenoceptor in rat cerebral cortex. Format: tissue-based.

Turning to `c1ccc2c(C3CCN(CCCn4cccc4)CC3)c[nH]c2c1`, the Ki in [1] turned out to be 86 nM; in experiment [2], 11 nM.
In the case of `Fc1ccc2c(C3CCN(CCCN4CCc5ccccc5C4)CC3)c[nH]c2c1`, the Ki was 16 nM in experiment [3], greater than 1000 nM on Adrenergic receptor beta and 90 nM in experiment [8]. Besides, the Ratio Ki (in the experiment listed under Rattus norvegicus [4]; in the experiment listed under Rattus norvegicus [6]; in [7]) was 40 throughout. Further, in [5], the IC50 is 560 nM.
In the case of `CN(C)CCCN1CCC(c2c[nH]c3ccccc23)CC1`, the Ki in [1] is 240 nM; in experiment [2], 4.8 nM.
Turning to `c1ccc2c(C3CCN(CCCC4CCCCC4)CC3)c[nH]c2c1`, the inhibitory constant (Ki) was determined as 140 nM in experiment [1] and 47 nM in experiment [2].
Take `c1ccc2c(C3CCNCC3)c[nH]c2c1`: the Ki is 3100 nM in experiment [1] and 440 nM in experiment [2].
For the compound `c1ccc(CCCN2CCC(c3c[nH]c4ccccc34)CC2)cc1`, the Ki in [1] was 16 nM; in [2] it was 13 nM.
